# Results taken from ChEMBL document CHEMBL3352506, “Betulin derivatives impair Leishmania braziliensis viability and host-parasite interaction” (Bioorg Med Chem, 2014).
# pIC50: −log10 of the molar value. Activity calls are given as the source filed them. The rule behind the calls is not given here.
# How the values were obtained:
# Leishmania braziliensis [1] = test: Antiparasitic activity against Leishmania braziliensis assessed as inhibition of growth after 72 hrs at 10 uM; format: functional
# [2] = Selectivity index, ratio of IC50 for mouse J774.A1 cells to IC50 for Leishmania braziliensis; format: toxicity, cell-based; conditions: J774.A1 cells versus Leishmania braziliensis, read-out: Ratio IC50
# Leishmania braziliensis [3] = test: Antiparasitic activity against Leishmania braziliensis assessed as inhibition of growth after 72 hrs; format: functional, organism-based
# J774.A1 = test: Cytotoxicity against mouse J774.A1 cells; format: cell-based
# Leishmania braziliensis [4] = test: Leishmanicidal activity against Leishmania braziliensis assessed as dead cells at 10^-6 M after 30 mins by chemotactic assay; format: functional; conditions: 0.5 h
# Leishmania braziliensis [5] = test: Leishmanicidal activity against Leishmania braziliensis assessed as dead cells at 10^-12 to 10^-7 M after 30 mins by chemotactic assay; format: functional, organism-based
# Leishmania braziliensis [6] = test: Leishmanicidal activity against Leishmania braziliensis assessed as reduction in parasite migration at 10^-6 M after 30 mins by chemotactic assay; format: functional, organism-based
# Leishmania braziliensis [7] = test: Antiparasitic activity against Leishmania braziliensis assessed as inhibition of infection with mouse J774.A1 cells measured attached parasites at 1 x 10^-8 M after 4 hrs; format: functional; design: scale not given: the % may be the effect or the level left
# Leishmania braziliensis [8] = test: Antiparasitic activity against Leishmania braziliensis assessed as inhibition of infection with mouse J774.A1 cells measured as >10 parasites per cell at 1 x 10^-9 M after 4 hrs; format: functional; design: scale not given: the % may be the effect or the level left
# Leishmania braziliensis [9] = test: Antiparasitic activity against Leishmania braziliensis assessed as inhibition of infection with mouse J774.A1 cells measured as <5 parasites per cell at 1 x 10^-8 M after 4 hrs; format: functional; design: scale not given: the % may be the effect or the level left
# Leishmania braziliensis [10] = test: Antiparasitic activity against Leishmania braziliensis assessed as inhibition of infection with mouse J774.A1 cells measured attached parasites at 1 x 10^-9 M after 4 hrs; format: functional; design: scale not given: the % may be the effect or the level left
# Leishmania braziliensis [11] = test: Antiparasitic activity against Leishmania braziliensis assessed as inhibition of infection with mouse J774.A1 cells measured as <5 parasites per cell at 1 x 10^-7 M after 4 hrs; format: functional; design: scale not given: the % may be the effect or the level left
# Leishmania braziliensis [12] = test: Antiparasitic activity against Leishmania braziliensis assessed as inhibition of infection with mouse J774.A1 cells measured infected cells […] at 1 x 10^-7 M after 4 hrs; format: functional; design: scale not given: the % may be the effect or the level left
# Leishmania braziliensis [13] = test: Antiparasitic activity against Leishmania braziliensis assessed as inhibition of infection with mouse J774.A1 cells measured as >10 parasites per cell at 1 x 10^-8 M after 4 hrs; format: functional; design: scale not given: the % may be the effect or the level left
# Leishmania braziliensis [14] = test: Antiparasitic activity against Leishmania braziliensis assessed as inhibition of infection with mouse J774.A1 cells measured infected cells […] at 1 x 10^-9 M after 4 hrs; format: functional; design: scale not given: the % may be the effect or the level left
# Leishmania braziliensis [15] = test: Antiparasitic activity against Leishmania braziliensis assessed as inhibition of infection with mouse J774.A1 cells measured as 5 to 10 parasites per cell at 1 x 10^-8 M after 4 hrs; format: functional; design: scale not given: the % may be the effect or the level left
# Leishmania braziliensis [16] = test: Antiparasitic activity against Leishmania braziliensis assessed as inhibition of infection with mouse J774.A1 cells measured infected cells […] at 1 x 10^-8 M after 4 hrs; format: functional; design: scale not given: the % may be the effect or the level left
# Leishmania braziliensis [17] = test: Antiparasitic activity against Leishmania braziliensis assessed as inhibition of infection with mouse J774.A1 cells measured as 5 to 10 parasites per cell at 1 x 10^-9 M after 4 hrs; format: functional; design: scale not given: the % may be the effect or the level left
# Leishmania braziliensis [18] = test: Antiparasitic activity against Leishmania braziliensis assessed as inhibition of infection with mouse J774.A1 cells measured attached parasites at 1 x 10^-7 M after 4 hrs; format: functional; design: scale not given: the % may be the effect or the level left
# Leishmania braziliensis [19] = test: Antiparasitic activity against Leishmania braziliensis assessed as inhibition of infection with mouse J774.A1 cells measured as 5 to 10 parasites per cell at 1 x 10^-7 M after 4 hrs; format: functional; design: scale not given: the % may be the effect or the level left
# Leishmania braziliensis [20] = test: Antiparasitic activity against Leishmania braziliensis assessed as inhibition of infection with mouse J774.A1 cells measured as >10 parasites per cell at 1 x 10^-7 M after 4 hrs; format: functional; design: scale not given: the % may be the effect or the level left
# Leishmania braziliensis [21] = test: Antiparasitic activity against Leishmania braziliensis assessed as inhibition of infection with mouse J774.A1 cells measured as <5 parasites per cell at 1 x 10^-9 M after 4 hrs; format: functional; design: scale not given: the % may be the effect or the level left
# Leishmania braziliensis [22] = test: Antiparasitic activity against Leishmania braziliensis assessed as inhibition of infection with mouse J774.A1 cells measured as 5 to 10 parasites per cell at 1 uM after 4 hrs; format: functional; design: scale not given: the % may be the effect or the level left
# Leishmania braziliensis [23] = test: Antiparasitic activity against Leishmania braziliensis assessed as inhibition of infection with mouse J774.A1 cells measured attached parasites at 1 uM after 4 hrs; format: functional; design: scale not given: the % may be the effect or the level left
# Leishmania braziliensis [24] = test: Antiparasitic activity against Leishmania braziliensis assessed as inhibition of infection with mouse J774.A1 cells measured infected cells at 1 uM after 4 hrs; format: functional; design: scale not given: the % may be the effect or the level left
# Leishmania braziliensis [25] = test: Antiparasitic activity against Leishmania braziliensis assessed as inhibition of infection with mouse J774.A1 cells measured as >10 parasites per cell at 1 uM after 4 hrs; format: functional; design: scale not given: the % may be the effect or the level left
# Leishmania braziliensis [26] = test: Antiparasitic activity against Leishmania braziliensis assessed as inhibition of infection with mouse J774.A1 cells measured as <5 parasites per cell at 1 uM after 4 hrs; format: functional; design: scale not given: the % may be the effect or the level left
smiles,measurement,setting,value
C=C(C)[C@@H]1CC[C@]2(C(=O)O)CC[C@]3(C)[C@H](CC[C@@H]4[C@@]5(C)CCC(=O)C(C)(C)[C@@H]5CC[C@]43C)[C@@H]12 [BETUNOLIC ACID],inhibition at 10 µM,Leishmania braziliensis [1],50%
"C=C(C)[C@@H]1CC[C@]2(/C=N/O)CC[C@]3(C)[C@H](CC[C@@H]4[C@@]5(C)CC/C(=N\O)C(C)(C)[C@@H]5CC[C@]43C)[C@@H]12 [BETULIN-3,28-DIOXIME]",selectivity ratio,[2],> 3
same,pIC50,Leishmania braziliensis [3],5.47
same,pIC50,J774.A1,< 5.00
same,inhibition at 1 µM,Leishmania braziliensis [4],25%
same,inhibition at 10 µM,Leishmania braziliensis [1],50%
same,Activity,Leishmania braziliensis [5],Dose-dependent effect
C=C(C)[C@@H]1CC[C@]2(/C=N/O)CC[C@]3(C)[C@H](CC[C@@H]4[C@@]5(C)CC[C@H](O)C(C)(C)[C@@H]5CC[C@]43C)[C@@H]12,selectivity ratio,[2],> 2.5
same,pIC50,Leishmania braziliensis [3],5.39
same,Activity,Leishmania braziliensis [6],Active
same,pIC50,J774.A1,< 5.00
same,inhibition at 1 µM,Leishmania braziliensis [4],66%
same,inhibition at 10 µM,Leishmania braziliensis [1],50%
CC(=O)OC[C@]12CC[C@]3(C(C)C)C1=C1C(C[C@@H]4[C@@]5(C)CC[C@H](OC(C)=O)C(C)(C)[C@@H]5CC[C@@]4(C)[C@]1(C)CC2)n1c(=O)n(C)c(=O)n13 (some centres undefined),inhibition at 10 µM,Leishmania braziliensis [1],50%
CC(C)[C@@]12CC[C@]3(COC=O)CC[C@]4(C)C(=C31)C(C[C@@H]1[C@@]3(C)CC[C@H](OC=O)C(C)(C)[C@@H]3CC[C@]14C)n1c(=O)n(C)c(=O)n12 (some centres undefined),Activity,Leishmania braziliensis [7],46.6%
same,Activity,Leishmania braziliensis [8],6.34%
same,Activity,Leishmania braziliensis [9],59.79%
same,Activity,Leishmania braziliensis [10],55%
same,Activity,Leishmania braziliensis [11],61.91%
same,selectivity ratio,[2],> 40
same,Activity,Leishmania braziliensis [12],17.7%
same,Activity,Leishmania braziliensis [13],4.78%
same,pIC50,Leishmania braziliensis [3],6.60
same,Activity,Leishmania braziliensis [14],10.3%
same,Activity,Leishmania braziliensis [15],31.09%
same,pIC50,J774.A1,< 5.00
same,Activity,Leishmania braziliensis [16],13.4%
same,Activity,Leishmania braziliensis [17],15.86%
same,Activity,Leishmania braziliensis [18],59%
same,Activity,Leishmania braziliensis [19],25.15%
same,inhibition at 1 µM,Leishmania braziliensis [4],25%
same,Activity,Leishmania braziliensis [5],Dose-dependent effect
same,Activity,Leishmania braziliensis [20],3.86%
same,Activity,Leishmania braziliensis [21],76.14%
C[C@@H]1[C@H](O)[C@@H](C)/C=C/C=C/C=C/C=C/C=C/C=C/C=C/[C@H](O[C@@H]2O[C@H](C)[C@@H](O)[C@H](N)[C@@H]2O)C[C@@H]2O[C@](O)(C[C@@H](O)C[C@@H](O)[C@H](O)CC[C@@H](O)C[C@@H](O)CC(=O)O[C@H]1C)C[C@H](O)[C@H]2C(=O)O [AMPHOTERICIN B],Activity,Leishmania braziliensis [22],21.45%
same,Activity,Leishmania braziliensis [23],41.3%
same,Activity,Leishmania braziliensis [24],15.2%
same,Activity,Leishmania braziliensis [25],7.15%
same,Activity,Leishmania braziliensis [26],71.51%
CC(C)[C@@]12CC[C@]3(C=O)CC[C@]4(C)C(=C31)C(C[C@@H]1[C@@]3(C)CC[C@H](O)C(C)(C)[C@@H]3CC[C@]14C)n1c(=O)n(C)c(=O)n12 (some centres undefined),Activity,Leishmania braziliensis [7],56.7%
same,Activity,Leishmania braziliensis [8],6.83%
same,Activity,Leishmania braziliensis [9],90.02%
same,Activity,Leishmania braziliensis [10],50%
same,Activity,Leishmania braziliensis [11],84.09%
same,selectivity ratio,[2],> 5
same,Activity,Leishmania braziliensis [12],12.7%
same,Activity,Leishmania braziliensis [13],7.29%
same,pIC50,Leishmania braziliensis [3],5.69
same,Activity,Leishmania braziliensis [14],14.4%
same,Activity,Leishmania braziliensis [15],9.73%
same,Activity,Leishmania braziliensis [6],Active
same,pIC50,J774.A1,< 5.00
same,Activity,Leishmania braziliensis [16],13.7%
same,Activity,Leishmania braziliensis [17],15.93%
same,Activity,Leishmania braziliensis [18],62.3%
same,Activity,Leishmania braziliensis [19],5.09%
same,inhibition at 1 µM,Leishmania braziliensis [4],25%
same,Activity,Leishmania braziliensis [20],5.09%
same,Activity,Leishmania braziliensis [21],77.41%
